For assay [1], the target named is T1, Histone deacetylase 1 (Homo sapiens, UniProt Q13547). The assay is described as follows: Concentration of compound required for acetylation of histone-4 in human T24 cancer cells. It is filed as functional, cell-based, Cancer cell lines.
The next assay concerns HCT-116. The assay is described as follows: In vitro antiproliferative activity against human colon cancer HCT 116 cells determined by […] assay. The format is functional, cell-based.
The target in assay [2] is T1, Histone deacetylase 1. The assay is described as follows: In vitro inhibition of partially purified recombinant human Histone deacetylase 1.
The test system of assay [3] is Mus musculus. The assay is described as follows: In vivo inhibition of non small cell lung carcinoma A549 tumor in nude mice administered with a daily dose of 20 mg/kg for 21 days. The format is functional. The note with it: A549, 504 h.
The test system of assay [4] is Mus musculus. Briefly: In vivo inhibition of non small cell lung carcinoma A549 tumor in nude mice administered with a daily dose of 40 mg/kg for 21 days. It is filed as functional. The note with it: A549, 504 h.
The subject of assay [5] is Mus musculus. The assay is described as follows: In vivo inhibition of non small cell lung carcinoma A549 tumor in nude mice administered with a daily dose of 50 mg/kg for 21 days. The format is functional. The note with it: A549, 504 h.

Structures are written as SMILES. pEC50, pIC50: −log10 of the molar value.

T1 sequence (Q13547 whole entry): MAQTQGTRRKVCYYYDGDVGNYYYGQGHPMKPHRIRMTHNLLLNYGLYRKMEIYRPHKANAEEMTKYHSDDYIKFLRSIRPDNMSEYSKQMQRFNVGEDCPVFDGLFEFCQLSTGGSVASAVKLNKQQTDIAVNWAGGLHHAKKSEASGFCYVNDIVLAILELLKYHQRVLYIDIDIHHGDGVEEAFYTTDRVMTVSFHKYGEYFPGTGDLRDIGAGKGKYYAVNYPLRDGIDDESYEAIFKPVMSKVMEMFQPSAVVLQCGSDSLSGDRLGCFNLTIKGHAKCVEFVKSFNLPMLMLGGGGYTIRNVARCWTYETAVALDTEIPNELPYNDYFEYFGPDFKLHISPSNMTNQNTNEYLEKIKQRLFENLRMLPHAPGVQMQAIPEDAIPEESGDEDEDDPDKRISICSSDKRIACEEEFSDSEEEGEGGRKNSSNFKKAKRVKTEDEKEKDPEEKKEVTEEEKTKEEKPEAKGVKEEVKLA

Turning to `Cc1ccc(S(=O)(=O)Nc2ccc(/C=C/C(=O)NO)cc2)cc1`, the negative logarithm of the EC50 (pEC50) was 5.00 on Histone deacetylase 1 [1] and 6.15 in the assay on HCT-116.

Compound `O=C(/C=C/c1ccc(NS(=O)(=O)c2ccccc2)cc1)NO` gave a pEC50 with HCT-116 of 5.52.

As for `O=C(/C=C/c1ccc(NS(=O)(=O)c2ccc(Cl)cc2)cc1)NO`, the pEC50 in the assay on HCT-116 was 6.00.

As for `O=C(Cc1ccc(NS(=O)(=O)c2ccccc2)cc1)NO`, the pEC50 at Histone deacetylase 1 [1] is under 4.60; in the assay with HCT-116, 4.66. Also, the pIC50 at Histone deacetylase 1 [2] was 6.00.

In the case of `COc1ccc(S(=O)(=O)Nc2ccc(/C=C/C(=O)NO)cc2)cc1`, the pEC50 is 5.30 on Histone deacetylase 1 [1] and 6.40 with HCT-116. The pIC50 on Histone deacetylase 1 [2] was 7.22.

Consider `O=C(/C=C/c1ccc(NS(=O)(=O)c2ccc(Cl)cc2Cl)cc1)NO`, for which the pEC50 on Histone deacetylase 1 [1] is under 4.60; in the assay with HCT-116 it was 5.40.

Take `O=C(/C=C/c1ccc(NS(=O)(=O)c2ccc(Cl)c(Cl)c2)cc1)NO`: the pEC50 at Histone deacetylase 1 [1] is 5.30; in the assay with HCT-116 it was 5.70. On Histone deacetylase 1 [2], the pIC50 is 7.00.

As for `CC(C)C(Cc1ccc(NS(=O)(=O)c2ccccc2)cc1)C(=O)NO` (stereo unspecified), the pEC50 on Histone deacetylase 1 [1] was under 4.60; in the assay on HCT-116, 4.52. On Histone deacetylase 1 [2], the pIC50 is under 4.60.

Turning to `O=C(CCc1ccc(NS(=O)(=O)c2ccccc2)cc1)NO`, the values for the pEC50 at Histone deacetylase 1 [1] and with HCT-116 were 5.30 and 5.70, respectively.

`COc1ccc(S(=O)(=O)Nc2ccc(/C=C/C(=O)NO)cc2)cc1OC` came in with an inhibition in vivo at 20 mg/kg in the assay on Mus musculus [3] of 41%. Further, the figures for the pEC50 on Histone deacetylase 1 [1] and in the assay with HCT-116 were 6.00 and 6.70, respectively. This compound had an inhibition in vivo at 40 mg/kg in the assay on Mus musculus [4] of 50%. Also, in the assay on Mus musculus [5], the inhibition in vivo at 50 mg/kg was determined as 57%.

`CC(/C=C/C(=O)NO)=C\[C@@H](C)C(=O)c1ccc(N(C)C)cc1` [TRICHOSTATIN]: the pEC50 in the assay on HCT-116 was 6.00.

As usually defined, the pEC50 is the negative decadic logarithm of the EC50, by convention in mol/L. Usually pIC50 stands for −log10 of the IC50, conventionally taken in molar units. What is called inhibition in vivo is the share of the control response that was lost under treatment. A lower inhibition in vivo goes with little suppression.

These data come from ChEMBL document CHEMBL1133829, “Design and synthesis of a novel class of histone deacetylase inhibitors” (Bioorg Med Chem Lett, 2001).
